Assay results published in patent publication US20150190407A1, “METHODS FOR TREATMENT OF POSTOPERATIVE INFLAMMATION WITH REDUCED INTRAOCULAR PRESSURE” (Insite Vision Incorporated, priority 2014, published 2015).
Read-outs that look alike come from different tables or passages of the source.

Columns and labels:
[1] = cited from earlier work
[2] = after 8 days of treatment for inflammation following ocular surgery; cited from earlier work
[3] = Release from the vehicle in the rabbit eye, measured in aqueous humor; type: in vivo; conditions: in the ophthalmically acceptable vehicle
Experimental: The viscous gels that result upon administration of the aqueous suspensions of the present disclosure to the eye have residence times in the eye ranging from about 2 to about 12 hours, e.g., from about 3 to about 6 hours. The active ingredients contained in these ophthalmically acceptable vehicles are released from the gels at rates that depend on such factors as the active ingredient itself and its physical form, the extent of drug loading and the pH of the system, as well as on any drug delivery adjuvants, such as ion exchange resins compatible with the ocular surface, which can also be present.

C[C@@H]1C[C@H]2[C@@H]3CCC4=CC(=O)C=C[C@]4(C)[C@@]3(F)[C@@H](O)C[C@]2(C)[C@@]1(O)C(=O)CO [dexamethasone]
rise in IOP (published data) ([1]; administered without the benefit of a sustained release vehicle): 3-4 mmHg

C[C@@H]1C[C@H]2[C@@H]3CCC4=CC(=O)C=C[C@]4(C)[C@@]3(F)[C@@H](O)C[C@]2(C)[C@@]1(O)C(=O)COP(=O)(O)O [dexamethasone phosphate]
increase of intraocular pressure ([1]; after one week): 1-2 mmHg
increase of intraocular pressure ([1]; after six weeks): 5-6 mmHg
increase of intraocular pressure ([1]; after two weeks): 3-4 mmHg
median intraocular pressure vs placebo (saline 0.9%) [2]: significantly higher

CC(=O)[C@@]1(O)CC[C@H]2[C@@H]3C[C@H](C)C4=CC(=O)C=C[C@]4(C)[C@@]3(F)[C@@H](O)C[C@@]21C [fluorometholone]
release rates in the rabbit eye, as measured by fluorometholone contained in the aqueous humor [3]: in excess of four hours
